{
  "source": "patent US11903918B2",
  "about": "“Fumarate ester dosage forms with enhanced gastrointestinal tolerability” (BANNER LIFE SCIENCES LLC, priority 2020, dated 2024)",
  "origin": "cited, not measured here",
  "key": {"[1]": {"tested_on": "nuclear factor erythroid-derived 2-like (Nrf2) pathway", "conditions": "in vitro and in vivo in humans"}},
  "note": "Where a name gives a salt, the structure may show the parent alone.",
  "data": [
    {"smiles": "COC(=O)/C=C/C(=O)OC", "note": "[dimethyl fumarate, dimethyl (E) butenedioate]", "values": [
      {"measurement": "solubility in water", "result": "highly soluble in water"},
      {"measurement": "activation of the Nrf2 pathway", "setting": "[1]", "result": "activate"}
    ]}
  ]
}
